Source: patent US10314880B2, “Composition comprising bortezomib” (FTF Pharma Private Limited, priority 2015, dated 2019)

Columns and labels:
[1] = Bortezomib as such; cited from earlier work
[2] = stress testing and accelerated stability studies; cited from earlier work
[3] = test system: Female New-Zealand White Rabbits; conditions: rabbit, in vivo
Description: Also Local tolerability/tissue reaction of Bortezomib 3.5 mg/0.2 mL compared with Velcade (Reference product) in Female New-Zealand White Rabbits.
The study was conducted to assess the local tolerance of Bortezomib in comparison with Velcade (Reference product) in New Zealand White Rabbits by single subcutaneous or intravenous route.

| Compound | water solubility [1] | stability in aqueous solution for injection [2] | External observation of the site of injection: signs of local intolerance [3] | Microscopic signs of local intolerance ([3]; iv) | animals with signs of local intolerance observed microscopically ([3]; sc) |
| --- | --- | --- | --- | --- | --- |
| CC(C)C[C@H](NC(=O)[C@H](Cc1ccccc1)NC(=O)c1cnccn1)B(O)O [Bortezomib, [(1R)-3-methyl-1-[[(2s)-3-phenyl-2-(pyrazine-2-carbonylamino)propanoyl]amino]butyl]boronic acid] | poor water solubility | unstable |  |  |  |
| Velcade |  |  | did not reveal any signs of local intolerance | no signs of local intolerance | 50 % of animals |
